Broadly, the Km is the substrate concentration at which the rate is half of its maximum.

Experiment [1] has as its system mixed glial-neuronal cultures. The experiment is described as follows: Glutamate production in intact mixed glial-neuronal cultures with added glutamine. Type of experiment: cell-based, mouse (Swiss Webster). The protocol: Added glutamate (15 μM) was rapidly cleared from the medium of the mixed glial-neuronal cultures (FIG. 1). The uptake again fit to a first order process and occurred with a rate constant of 0.072 min^-1. […] When the intact mixed cultures were maintained in the absence or presence of added 2 mM glutamine, they also maintained steady state concentrations of glutamate below 1 μM (0.37±0.06 μM and 0.83±0.47 μM respectively). Thus, from the steady state equation, the rates of glutamate production were estimated to be 0.027 μM/min (11 pmol/min) in the absence of added glutamine and 0.060 μM/min (24 pmol/min) in the presence of 2 mM glutamine.
Measurements of glutamate and glutamine concentrations, as well as of the release of the cytoplasmic marker enzyme, lactate dehydrogenase (LDH), were made with the medium of mixed neuronal-astrocyte cultures exposed to hypoxic and control conditions, with and without the addition of 2 mM glutamine. For comparative purposes, the measurements were made in mixed cultures in which complete neuronal death was caused by a 5h exposure to 500 μM NMDA. The first glutamate measurement was made at the end of hypoxia (5h with mixed cultures, 7h with astrocytes), and the second at 19 h after the subsequent return of oxygen. If added, glutamine was present during and after hypoxia. LDH released by the experimental treatment was measured at 24 h, and is expressed as a percentage of the total cellular content (neurons in mixed cultures, and glia in glial cultures). To verify the neuronal origin of LDH and glutamate, similar experiments were performed on cultures that only contained glia.
Pre-column derivatization with o-phthalaldehyde (OPA, Sigma) and separation by reversed phase HPLC was used. A Gilson HPLC was fitted with a Hewlett-Packard model 1046A fluorimetric detector (excitation 340 nm, emission 420 nm). Medium was collected from cell culture at various times, and frozen at -80° C., prior to dilution of 5 or 10 μl into auto-sampler vials containing 40 or 45 μl dimethylformamide:water 1:3 (derivatives with 2-mercaptoethanol) or 1:9 (derivatives with N-acetyl-L-cysteine). For analysis of the derivatives formed with 2-mercaptoethanol, samples were reacted according to published methods (Newcomb, R. (1989) LC GC 7, 570-578; Lindroth, P., and Mopper. K., (1979) Anal. Chem. 51, 1667-1674.), and a gradient of 0-40% methanol in 1.25 mM sodium phosphate pH 6.2 over 20 min was used to elute the derivatives from a 4.5×250 mm Beckman Ultrasphere octadecylsilica column (dp 5 μm) at 1 ml/min. For analysis of the derivatives formed with N-acetyl-L-cysteine (Bruckner), samples were reacted with 25 μl of 1 mg/ml OPA, and 50 μl of 1 mg/ml N-acetyl-L-cysteine (Fluka) in 0.5 M potassium borate pH 10.0. […]
(§1) In cultures where glutamate concentrations are (within error) constant, d[Glu]/dt is close to zero, and cellular production of medium glutamate is balanced by its removal, such that glutamate production can be calculated from the steady state equation: […]
(§2) Calculations were performed using the slopes of the regression lines which describe the rate constants for glutamate removal and the mean values for culture medium glutamate concentrations. […] For comparative purposes, glutamate production rates can be expressed as pmol of glutamate produced per min in each culture. […]

The next experiment relates to glutaminase. Particulars: Kovacevic and McGiven, 1983; read-out: Km of glutaminase for glutamine; cited from earlier work.
The test system of experiment [2] is glial cultures (astrocytes). The experiment is described as follows: Glutamate production in intact glial cultures with added glutamine. The experiment is classed as cell-based, mouse (Swiss Webster). The method, then: The glutamate concentration of glial cultures was maintained below 1 μM when cells were maintained in the absence or presence of 2 mM added glutamine or when subjected to hypoxic conditions (see below). The medium glutamate concentration remained unchanged between 7 and 24 h after medium change and was 0.14±0.04 μM and 0.36±0.06μM in medium containing 0.15 mM or 2.0 mM glutamine, respectively. Based on these steady state concentrations and the measured rate of glutamate uptake, the rates of glutamate production in the absence and presence of added glutamine were calculated to be 0.012 μM/min (4.8 pmol/min) and 0.030 μM/min (12 pmol/min), respectively. Thus, the calculated rates of glutamate production by glial cultures are only slightly affected by the addition of glutamine and are similar to those observed in intact neurons cultured in the absence of added glutamine.
Pre-column derivatization with o-phthalaldehyde (OPA, Sigma) and separation by reversed phase HPLC was used. A Gilson HPLC was fitted with a Hewlett-Packard model 1046A fluorimetric detector (excitation 340 nm, emission 420 nm). Medium was collected from cell culture at various times, and frozen at -80° C., prior to dilution of 5 or 10 μl into auto-sampler vials containing 40 or 45 μl dimethylformamide:water 1:3 (derivatives with 2-mercaptoethanol) or 1:9 (derivatives with N-acetyl-L-cysteine). […]
as §1, §2

Where [3] appears, read: Table 2, glial-neuronal, 2 mM Gln.

`NC(=O)CC[C@H](N)C(=O)O` [Gln, glutamine] came in with a Glu in experiment [1] (2 mM Gln, 5 h, mixed cultures, no hypoxia) of 0.83 ± 0.47 µM. In experiment [1] (Mus musculus, 24 h, read-out: % cell death (LDH)), the cytotoxicity at 2000 µM turned out to be 17.6%. Moreover, the Glutamate concentration was determined as 0.83 ± 0.47 in experiment [1] (setting [3]) and 0.36 ± 0.06 in experiment [2] (Table 2, glial, 2 mM Gln). In addition, the “Glutamate production (S)” value came out at 0.06 in experiment [1] (setting [3]) and 0.03 in experiment [2] (Table 2, glial, 2 mM Gln). The “glutamate production per culture” value was 24 pmol/min in experiment [1] (mixed, 2 mM glutamine) and 12 pmol/min in experiment [2] (glial, 2 mM glutamine). For the same molecule, the Km in the experiment on glutaminase is 2 to 8 mM.

The values above are taken from US6310093A (priority 1998, dated 2001).
